Key:
[1] = target: T1, porcine gastric H^+/K^+-ATPase (Sus scrofa, UniProt P19156); assay: Ion-tight porcine gastric H+/K+-ATPase inhibition; format: biochemical; conditions: ion-tight gastric vesicles, 150 mM KCl, 15 μM valinomycin, pH 7.4, 37° C., 30 minutes; read-out: IC50 of the inhibitory activity
T1 construct: prepared from mucous membrane in fresh porcine stomachs by homogenization; from tissue; host or cells: gastric vesicles from mucous membrane of fresh porcine stomachs
Protocol: The porcine gastric vesicles for Porcine gastric H^+/K^+-ATPase inhibition assays were prepared from mucous membrane in fresh porcine stomachs by homogenization with a tight-fitted polytetrafluoroethylene (Teflone®) homogenizer in 0.25 M sucrose at 4° C. The crude pellet was removed with centrifugation at 20,000 g for 30 min. Then supernatant was centrifuged at 100,000 g for 30 min. The resulting pellet was re-suspended in 0.25 M sucrose, and then subjected to density gradient centrifugation at 132,000 g for 90 min. The gastric vesicles were collected from interface on 0.25 M sucrose layer containing 7% FicollTM PM400(Amersham Biosciences). This procedure was performed in a cold room.
Ion-tight porcine gastric H^+/K^+-ATPase inhibition was measured according to the modified method described in Biochemical Pharmacology, 1988, 37, 2231-2236.
The isolated vesicles were kept in deep-freezer until use. For enzyme assay, vesicles were diluted with 3 mM MgSO4 containing 5 mM Tris (pH 7.4 at 37° C.).
Enzyme reaction was performed incubating 150 mM KCl, 3 mM Na2ATP, 3 mM MgSO4, 15 μM valinomycin and 3.0 μg of vesicles for 30 minutes at 37° C. in a final 60 μl of reaction mixture (5mM Tris, pH 7.4) with or without the test compound. Enzyme reaction was stopped by adding 10% SDS. Released inorganic phosphate from ATP was detected by incubating with mixture of 1 part of 35 mM ammonium molybdate tetrahydrate in 15 mM Zinc acetate hydrate and 4 parts of 10% ascorbic acid (pH 5.0), resulting in phosphomolybdate, which has optical density at 750 nm.

T1 sequence (P19156 2-1034 limits assumed): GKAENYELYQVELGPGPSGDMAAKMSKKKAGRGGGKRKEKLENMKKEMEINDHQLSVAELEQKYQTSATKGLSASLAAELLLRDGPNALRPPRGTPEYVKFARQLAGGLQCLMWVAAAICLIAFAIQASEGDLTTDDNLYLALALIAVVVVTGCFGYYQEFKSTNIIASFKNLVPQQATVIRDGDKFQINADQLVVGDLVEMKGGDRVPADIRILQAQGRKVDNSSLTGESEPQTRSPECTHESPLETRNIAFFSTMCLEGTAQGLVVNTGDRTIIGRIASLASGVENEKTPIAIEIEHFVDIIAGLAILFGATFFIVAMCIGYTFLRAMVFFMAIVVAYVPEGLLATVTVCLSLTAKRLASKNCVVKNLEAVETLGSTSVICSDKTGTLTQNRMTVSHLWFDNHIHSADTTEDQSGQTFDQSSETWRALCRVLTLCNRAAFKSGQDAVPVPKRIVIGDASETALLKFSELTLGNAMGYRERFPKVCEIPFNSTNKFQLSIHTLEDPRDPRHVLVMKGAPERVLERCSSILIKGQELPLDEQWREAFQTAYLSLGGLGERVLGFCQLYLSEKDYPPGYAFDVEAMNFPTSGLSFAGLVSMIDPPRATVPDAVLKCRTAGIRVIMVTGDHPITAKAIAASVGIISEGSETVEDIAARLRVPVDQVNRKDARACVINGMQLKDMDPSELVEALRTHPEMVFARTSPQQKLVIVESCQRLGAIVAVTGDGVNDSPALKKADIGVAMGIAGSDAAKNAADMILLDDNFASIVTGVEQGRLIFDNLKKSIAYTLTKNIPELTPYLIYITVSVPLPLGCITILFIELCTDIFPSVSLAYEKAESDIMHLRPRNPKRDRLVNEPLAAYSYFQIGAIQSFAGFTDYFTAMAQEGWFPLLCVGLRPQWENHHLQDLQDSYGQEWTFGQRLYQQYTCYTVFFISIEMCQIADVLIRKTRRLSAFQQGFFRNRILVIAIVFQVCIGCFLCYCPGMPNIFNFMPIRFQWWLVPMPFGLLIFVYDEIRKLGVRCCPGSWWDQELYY
T1 sequence (P18434 whole entry partner): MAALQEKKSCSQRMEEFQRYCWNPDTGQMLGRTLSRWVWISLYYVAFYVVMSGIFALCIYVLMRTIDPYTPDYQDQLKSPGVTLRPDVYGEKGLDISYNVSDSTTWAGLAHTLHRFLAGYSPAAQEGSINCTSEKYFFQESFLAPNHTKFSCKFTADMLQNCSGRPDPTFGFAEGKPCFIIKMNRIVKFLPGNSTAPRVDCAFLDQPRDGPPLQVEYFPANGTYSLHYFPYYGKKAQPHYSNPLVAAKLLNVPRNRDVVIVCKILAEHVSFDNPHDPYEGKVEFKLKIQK

Structure (SMILES)	IC50 [1] [nM]	melting point [°C]
Cc1nc2c(NC3CCOc4ccccc43)cc(C(=O)N(C)C)cn2c1CO (single isomer, unassigned; (+)) [Example 2-2, (+)-8-(3,4-Dihydro-2H-chromen-4-ylamino)-3-(hydroxymethyl)-N,N,2-trimethylimidazo[1,2-a]pyridine-6-car boxamide]	61	–
Cc1cccc2c1[C@@H](Nc1cc(C(=O)N(C)C)cn3c(CO)c(C)nc13)CCO2 (single isomer, unassigned) [Example 1-2]	84	–
Cc1nc2c(NC3CCOc4cccc(F)c43)cc(C(=O)N(C)C)cn2c1CO (single isomer, unassigned; (-)) [Example 4-2, (−)-8-[(5-Fluoro-3,4-dihydro-2H-chromen-4-yl)amino]-3-(hydroxymethyl)-N,N,2-trimethylimidazo [1,2a]pyridine-6-carboxamide]	29	–
Cc1cccc2c1C(Nc1cc(C(=O)N(C)C)cn3c(CO)c(C)nc13)CCO2 (single isomer, unassigned) [Example 1-3]	89	–
Cc1nc2c(NC3CCOc4cc(F)cc(F)c43)cc(C(=O)N(C)C)cn2c1CO (single isomer, unassigned) [Example 3-3]	41	–
Cc1nc2c(N[C@H]3CCOc4cc(F)cc(F)c43)cc(C(=O)N(C)C)cn2c1CO (single isomer, unassigned) [Example 3-3]	–	186
Cc1nc2c(NC3CCOc4cc(F)cc(F)c43)cc(C(=O)N(C)C)cn2c1CO (single isomer, unassigned) [Example 3-2]	37	–
Cc1nc2c(NC3CCOc4ccccc43)cc(C(=O)N(C)C)cn2c1CO (single isomer, unassigned; (-)) [Example 2-3]	67	–
Cc1nc2c(NC3CCOc4cccc(F)c43)cc(C(=O)N(C)C)cn2c1CO (single isomer, unassigned; (+)) [Example 4-3, (+)-8-[(5-Fluoro-3,4-dihydro-2H-chromen-4yl)-amino]-3-(hydroxymethyl)-N,N,2-trimethylimidazo [1,2-a]pyridine-6-carboxamide]	30	–
Cc1nc2c(NC3CCOc4ccccc43)cc(C(=O)N(C)C)cn2c1CO (racemic) [Example 2-1, 8-(3,4-Dihydro-2H-chromen-4-ylamino)-3-(hydroxymethyl)-N,N,2-trimethylimidazo[1,2a]pyridine-6-carboxamide]	75	–

Other lines, results leading:

IC50 [1] [nM]	melting point [°C]	Structure (SMILES)
47	–	Cc1nc2c(NC3CCOc4cccc(F)c43)cc(C(=O)N3CCOCC3)cn2c1CO (racemic) [Example 9-1, [8-[(5-Fluoro-3,4-dihydro-2H-chromen-4-yl)amino]-2-methyl-6-(morpholin-4-ylcarbonyl)imidazo[1,2-a]pyridin-3-yl]methanol]
96	–	Cc1nc2c(NC3CCOc4ccccc43)cc(C(=O)N3CCOCC3)cn2c1CO (single isomer, unassigned; (-)) [Example 7-2, (−)-[f8-(3,4-Dihydro-2H-chromen-4-ylamino)-2-methyl-6-(morpholin-4-ylcarbonyl)imidazo[1,2-a]pyridin-3-yl]methanol]
40	–	Cc1nc2c(NC3CCOc4cc(F)cc(F)c43)cc(C(=O)N3CCOCC3)cn2c1CO (single isomer, unassigned; (+)) [Example 8-2, (+)-[8-[(5,7-Difluoro-3,4-dihydro-2H-chromen-4-yl)amino]-2-methyl-6-(morpholin-4-ylcarbonyl)imidazo[1,2-a]pyridin-3-yl]methanol]
61	–	Cc1cccc2c1C(Nc1cc(C(=O)N3CCOCC3)cn3c(CO)c(C)nc13)CCO2 (single isomer, unassigned; (+)) [Example 6-3, (+)-[2-Methyl-8-[(5-methyl-3,4-dihydro-2H-chromen-4-yl)amino]-6-(morpholin-4-ylcarbonyl)imidazo[1,2-a]pyridin-3-yl]methanol]
72	–	Cc1nc2c(NC3CCOc4cccc(F)c43)cc(C(=O)N3CCOCC3)cn2c1CO (single isomer, unassigned; (+)) [Example 9-2]
52	–	Cc1nc2c(NC3CCOc4cc(F)cc(F)c43)cc(C(=O)N3CCOCC3)cn2c1CO (single isomer, unassigned; (-)) [Example 8-3, (−)-[8-[5,7-Difluoro-3,4-dihydro-2H-chromen-4-yl)amino]-2-methyl-6-(morpholin-4-ylcarbonyl)imidazo[1,2-a]pyridin-3-ylmethanol]
43	–	Cc1cccc2c1C(Nc1cc(C(=O)N3CCOCC3)cn3c(CO)c(C)nc13)CCO2 (single isomer, unassigned; (-)) [Example 6-2]
55	–	Cc1nc2c(NC3CCOc4cc(F)cc(F)c43)cc(C(=O)N3CCOCC3)cn2c1CO (racemic) [Example 8-1]
110	–	Cc1nc2c(NC3CCOc4ccccc43)cc(C(=O)N3CCOCC3)cn2c1CO (single isomer, unassigned; (+)) [Example 7-3, (+)-[8-(3,4-Dihydro-2H-chromen-4-ylamino)-2-methyl-6-(morpholin-4-ylcarbonyl)imidazo[1,2-a]pyridin-3-yl]methanol]
61	–	Cc1nc2c(NC3CCOc4cccc(F)c43)cc(C(=O)N3CCOCC3)cn2c1CO (single isomer, unassigned; (-)) [Example 9-3]
140	–	Cc1nc2c(NC3CCOc4ccccc43)cc(C(=O)N3CCOCC3)cn2c1CO (racemic) [Example 7-1, [8-(3,4-Dihydro-2H-chromen-4-ylamino)_-2-methyl-6-(morpholin-4-ylcarbonyl)imidazo[1,2-a]pyridin-3-yl]methanol]

— US20070219237A1, “Chromane Derivatives” (Pfizer Inc, priority 2006, published 2007)
